pIC50: −log10 of the molar value. Activity calls are given as the source filed them.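 Rule for the calls: active = in confirmatory dose-response testing, peak deubiquitinase inhibition of 30% or more; inactive = the rest.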 Where only a bound is given, the exact number is not on record here.

For this assay, the target named is Ubiquitin carboxyl-terminal hydrolase 28 (Homo sapiens) (UniProt Q96RU2). Nature of the assay: Ubiquitin-specific peptidase 28 DUB inhibitors, biochemical concentration-dependence assay, validation of primary screening hits (AID 1645866). Particulars: purified USP28, ubiquitin-rhodamine fluorescence, 30 min.
Sequence of Ubiquitin carboxyl-terminal hydrolase 28 (Homo sapiens) (Q96RU2 whole entry, looked up): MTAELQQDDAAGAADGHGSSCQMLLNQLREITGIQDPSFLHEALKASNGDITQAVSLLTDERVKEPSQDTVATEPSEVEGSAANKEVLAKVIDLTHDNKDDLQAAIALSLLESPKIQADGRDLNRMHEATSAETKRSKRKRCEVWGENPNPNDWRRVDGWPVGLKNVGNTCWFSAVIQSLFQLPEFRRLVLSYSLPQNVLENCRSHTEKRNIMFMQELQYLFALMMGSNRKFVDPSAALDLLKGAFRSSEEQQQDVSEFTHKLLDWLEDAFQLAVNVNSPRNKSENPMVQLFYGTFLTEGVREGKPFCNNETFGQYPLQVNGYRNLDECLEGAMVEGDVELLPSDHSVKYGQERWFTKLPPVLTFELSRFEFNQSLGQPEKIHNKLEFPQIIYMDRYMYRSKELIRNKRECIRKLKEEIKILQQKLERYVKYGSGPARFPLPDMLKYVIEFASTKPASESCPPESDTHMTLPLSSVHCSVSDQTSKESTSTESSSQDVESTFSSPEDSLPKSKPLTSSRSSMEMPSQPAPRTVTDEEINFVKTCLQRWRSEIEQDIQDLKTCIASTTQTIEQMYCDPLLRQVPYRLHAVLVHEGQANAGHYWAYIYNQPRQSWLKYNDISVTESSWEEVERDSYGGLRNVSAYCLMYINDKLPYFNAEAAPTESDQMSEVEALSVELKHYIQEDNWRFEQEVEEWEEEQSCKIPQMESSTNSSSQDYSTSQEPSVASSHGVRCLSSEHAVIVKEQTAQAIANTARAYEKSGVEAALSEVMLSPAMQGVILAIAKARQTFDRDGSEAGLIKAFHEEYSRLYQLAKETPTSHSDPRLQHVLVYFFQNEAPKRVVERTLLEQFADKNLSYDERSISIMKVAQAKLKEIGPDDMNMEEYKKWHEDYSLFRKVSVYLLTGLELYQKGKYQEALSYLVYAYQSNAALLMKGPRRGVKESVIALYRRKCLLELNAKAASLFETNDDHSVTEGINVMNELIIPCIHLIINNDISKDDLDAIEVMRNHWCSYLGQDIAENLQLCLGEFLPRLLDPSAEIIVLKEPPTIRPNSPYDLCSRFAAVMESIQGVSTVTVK
As a reminder, the pIC50 is −log10 of the IC50, conventionally taken in molar units. Turning to `Cc1nc(-c2noc(-c3ccncc3)n2)cn1CC(=O)N1CCN(c2ccc(F)cc2)CC1`, the pIC50 is 4.43.

Turning to `COc1ccc2c(c1)CCc1c(C(=O)NCc3cccnc3)noc1-2`, the pIC50 was 4.69.

In the case of `CCc1cccc(CC)c1NC(=O)COC(=O)c1cc2cccc(OC)c2oc1=O`, the pIC50 was 4.78.

For `Cc1ccc(O)c(-c2cc(C(=O)Nc3ccccc3Cl)[nH]n2)c1`, the pIC50 is 4.77.

With `CCOc1cc(N2CCOCC2)c(OCC)cc1NC(=O)c1cc(-c2ccncc2)nc2ccccc12`, the negative-log IC50 (pIC50) was 5.14.

For `COc1ccc(Cl)cc1NC(=O)c1cc(-c2ccccn2)n[nH]1`, the pIC50 was 6.26.

For `O=C(Nc1ccc2c(c1)OCCO2)c1ccc(N2CCCC2=O)cc1`, the negative logarithm of the IC50 (pIC50) was 5.14.

Consider `CC(=O)c1ccc(NC(=O)CC2C(=O)Nc3nc4ccccc4n32)cc1` (configuration not stated), for which the negative-log IC50 (pIC50) was 4.56.

A word on the IC50: it is the concentration that inhibits the measured activity by half. Turning to `Cc1ccc(C)c(-n2c(C)cc(/C=C3/C(=N)N4C(c5ccc(F)cc5)=CSC4=NC3=O)c2C)c1`, the IC50 is > 50 µM (inactive).

For `CC(C)N(C(=O)Cn1c(=O)[nH]c2ccccc21)c1ccccc1`, the IC50 was > 50 µM (inactive).

`Cc1cc(NC(=O)c2[nH]nc3c2CCc2ccccc2-3)no1`: the pIC50 was 5.20.

As to `O=C(Nc1cccc(-c2nc3ccccc3[nH]2)c1)c1cc2ccccc2oc1=O`, the pIC50 was 5.66.

Take `COc1cccc(CCNC(=O)CCn2c(=O)c(C)nc3cc(C)c(C)cc32)c1`: the IC50 is > 50 µM (inactive).

Take `COc1ccc(C(=O)Nc2ccc3c(c2)Sc2ncccc2C(=O)N3C)cn1`: the IC50 was > 50 µM (inactive).

For `O=C(c1ccco1)N1CCCC2(C1)Nc1cccnc1NC2=NC1CCCC1` (configuration not stated), the IC50 is > 50 µM (inactive).

`COc1cc(-c2nc(C(N)=O)c3[nH]c(=O)n(-c4ccc(C)cc4)c3n2)cc(OC)c1OC`: the pIC50 was 5.76.

Consider `CCOc1ccc2c(c1)c(=O)c(C(=O)c1ccccc1)cn2CC(=O)Nc1ccccc1`, for which the pIC50 is 5.01.

In the case of `O=C(CN1C(=O)C2CCCC2=Nc2ccccc21)Nc1cc(F)ccc1F` (configuration not stated), the negative-log IC50 (pIC50) was 4.87.

In the case of `CC(=O)C1=C(O)[C@]2(O)C(=O)c3c(c(C)c4ccc(C)c(O)c4c3O)C[C@H]2[C@@H](N)C1=O`, the pIC50 was 5.83.

On to `O=C(COC(=O)CCc1ccc(S(=O)(=O)N2CCOCC2)cc1)Nc1ccc2c(c1)OCCO2`, for which the negative logarithm of the IC50 (pIC50) is 5.14.

For the compound `O=C(Nc1ccc(F)cc1F)NC1CCN(c2ccccc2)C1=O` (configuration not stated), the negative-log IC50 (pIC50) is 4.66.

As to `O=C(Nc1ccc2c(c1)OCCO2)C1CCC(Cn2cnc3ccccc3c2=O)CC1` (configuration not stated), the negative logarithm of the IC50 (pIC50) was 6.23.

Regarding `O=C(NC1(O)C(=O)c2ccccc2C1=O)c1cccc2c1-c1ccccc1C2=O`, the negative logarithm of the IC50 (pIC50) was 4.49.

As for `CCOC(=O)c1sc2nc(CC(=O)OC)nc(NCc3ccco3)c2c1C`, the IC50 was > 50 µM (inactive).

For the compound `COc1cc(N)c(Cl)cc1C(=O)OCC(=O)c1ccc2c(c1)OCCO2`, the negative logarithm of the IC50 (pIC50) is 5.21.

Turning to `CC(=O)c1sc(NC(=O)c2ccccc2-c2ccc(C(F)(F)F)cc2)nc1C`, the pIC50 was 4.73.

Turning to `Cc1ccccc1NC(=O)CNc1nc(Nc2ccccc2)nc(Nc2ccccc2)n1`, the pIC50 was 4.72.

On to `COc1ccccc1CNC(=O)C1CCCN(c2nc3ccsc3c(=O)s2)C1` (configuration not stated), for which the pIC50 was 5.04.

`CCN1CCN(C(=O)CCCN(c2ccccc2)S(C)(=O)=O)CC1`: the IC50 is > 50 µM (inactive).

As to `Cc1ccc(S(=O)(=O)N(C)C)cc1NC(=O)Cc1ccc(Cl)c(Cl)c1`, the pIC50 was 6.56.

As to `C[C@H](NC(=O)Cc1ccccc1F)c1nc2cc(-c3ccccc3F)ncn2n1`, the IC50 was > 50 µM (inactive).

Consider `Cc1cccc(CNC(=O)c2ccc(-c3nnc(-c4cccc(C)c4)o3)cc2)c1`, for which the negative-log IC50 (pIC50) was 4.75.

In the case of `CC1CCCN(CCCNC(=O)c2ccc(N3CCc4ccccc43)s2)C1` (configuration not stated), the pIC50 was 4.73.

On to `Cc1nc(C(=O)NC2(O)C(=O)c3ccccc3C2=O)cs1`, for which the negative-log IC50 (pIC50) was 4.85.

`COc1ccc(C(=O)Nc2nc3n(n2)C(c2ccccc2)CC(=O)N3)cc1` (configuration not stated): the pIC50 was 4.90.

As for `CCN1CCCC1CN(Cc1cc2cc(OC)ccc2[nH]c1=O)C(=O)NCc1ccccc1` (configuration not stated), the IC50 was > 50 µM (inactive).

Regarding `CN1c2ccccc2CN(CC(N)=O)CC1Cc1ccccc1` (configuration not stated), the IC50 was > 50 µM (inactive).

Consider `CN(C)c1cc(-n2cnc(C(=O)NCc3ccccc3Cl)c2)ncn1`, for which the pIC50 was 4.70.

`COc1cc(OC)cc(-n2c(=O)c3sccc3n(CC(=O)c3ccc(F)cc3)c2=O)c1`: the pIC50 is 4.55.

As for `CC(=O)Nc1ccc(O)c(-c2nc3cc(C)ccc3o2)c1`, the pIC50 was 5.47.

Regarding `CN1CCC(N(C)S(=O)(=O)c2ccc(NC(=O)c3cccc(OCc4ccccc4)c3)cc2)CC1`, the pIC50 is 4.77.

As for `O=C(Nc1ccc2c(c1)OCCO2)C1CCN(C(=O)c2cc(-c3cccnc3)n[nH]2)CC1`, the pIC50 is 4.79.

Turning to `COc1ccc(NC(=O)CSc2nnc(Cc3cccc4ccccc34)n2C)cc1`, the pIC50 was 4.76.

For the compound `O=C(CNC(=O)OCc1ccccc1)Nc1ccc(Br)cc1C(=O)c1ccccc1Cl`, the pIC50 is 4.95.

`COc1cccc2c1OCC(C(=O)NCc1ccc(F)cc1)=C2`: the pIC50 is 4.67.

As for `O=C(c1ccc2occc2c1)N1CCC(S(=O)(=O)c2ccc(-c3ccco3)cc2)CC1`, the IC50 was > 50 µM (inactive).

For `O=C(CCc1nnc2n(Cc3ccccc3Cl)c(=O)c3ccccc3n12)NCc1ccccn1`, the pIC50 is 4.63.

`O=C(CN1CCCc2ccccc21)Nc1ccc(N2CCOCC2)cc1`: the IC50 is > 50 µM (inactive).

Take `CN(C(=O)c1cccc2cccnc12)c1nc2c(s1)CCc1occc1-2`: the negative-log IC50 (pIC50) was 4.57.

For `Cc1ccccc1C(=O)NCCn1cc(SCC(=O)Nc2ccc3c(c2)OCCO3)c2ccccc21`, the pIC50 was 4.45.

As to `Cc1sc(NC(=O)CNc2ccccc2)nc1-c1ccc2c(c1)CCN2C(=O)C(C)C`, the IC50 is > 50 µM (inactive).

For `Cc1cccc(O)c1-c1nc2c(-c3nc4c(C(=O)O)cccc4o3)cccc2o1`, the IC50 was > 50 µM (inactive).

As to `CCCCc1ccc(-c2cc(C(=O)NCCN3CCOCC3)c3cc(Br)ccc3n2)cc1`, the pIC50 is 4.83.

On to `Cn1cccc1C(=O)N1CCCC2(C1)Nc1cccnc1NC2=NC1CCCC1` (configuration not stated), for which the IC50 was > 50 µM (inactive).

Take `Cc1ccc2nc(-c3cccc(-c4nc5ccc(C)cc5[nH]4)n3)[nH]c2c1`: the IC50 is > 50 µM (inactive).

Turning to `CCCc1nc2sc3c(NCCN4CCOCC4)ncnc3c2c2c1CCC2`, the pIC50 was 6.23.

Consider `O=C(/C=C/C=C/C=C/C1CCCCC1)NC1=C[C@@](O)(/C=C/C=C/C=C/C(=O)NC2=C(O)CCC2=O)[C@@H]2O[C@@H]2C1=O`, for which the negative-log IC50 (pIC50) is 5.44.

In the case of `CC1OC2CC(O)C1(O)C1=C2C(=O)c2c(O)c3c(c(O)c2C1=O)[C@H](C)O[C@H]1CC(=O)O[C@@H]31` (some centres not stated), the IC50 was > 50 µM (inactive).

Turning to `C[C@]12C(=O)N(c3ccc(C(=O)NCc4ccc(F)cc4)cc3)C(=O)N1CCc1c2[nH]c2ccccc12`, the negative-log IC50 (pIC50) is 4.39.

As for `O=c1c(-c2nc(C3CC3)no2)cccn1Cc1c(F)cccc1Cl`, the pIC50 was 5.74.

Turning to `COc1ccc(NC(=O)COc2ccc3ccc(=O)oc3c2)cc1`, the pIC50 is 4.51.

On to `Cc1cc(NC(=O)Cn2c(=O)n(CCCCC(=O)NCc3ccco3)c(=O)c3ccccc32)ccc1Br`, for which the pIC50 was 5.63.

In the case of `Cc1cc(NC(=O)c2cc(-c3cccnc3)n[nH]2)ccc1Br`, the pIC50 is 5.99.

Regarding `CC1CC(=O)c2c(cc3c(-c4c(O)cc(O)c5c(O)c6c(cc45)OC(C)CC6=O)c(O)cc(O)c3c2O)O1` (configuration not stated), the negative logarithm of the IC50 (pIC50) was 4.68.

As to `CO[C@H]1/C=C/OC2(C)Oc3c(C)c(O)c4c(c3C2=O)C2(C=C(NC(=O)/C(C)=C\C=C\[C@H](C)[C@H](O)[C@@H](C)[C@@H](O)[C@@H](C)[C@H](OC(C)=O)C1C)C4=O)OCC(=O)O2` (some centres not stated), the IC50 was > 50 µM (inactive).

As for `N#Cc1ccc(Cn2nnc(-c3cccc(Cl)c3)n2)cc1`, the pIC50 is 5.06.

Consider `COc1ccc(CNC(=O)Nc2cccc3ccccc23)cc1`, for which the pIC50 was 5.00.

For `CSc1nccc(-c2ccc(F)cc2)c1C#N`, the pIC50 is 4.34.

On to `COc1ccc(-n2c(SCC(=O)c3ccc(F)cc3)nnc2-c2cccnc2)cc1`, for which the pIC50 was 4.73.

For `CC1CCc2c(sc3nc(CC#N)[nH]c(=O)c23)C1` (configuration not stated), the IC50 is > 50 µM (inactive).

As for `CCc1noc(Cn2cnc3c4ccccc4n(CC(=O)NC4CCCCC4)c3c2=O)n1`, the pIC50 is 4.40.

For `CCOc1ccc(NC(=O)Cn2c(=O)n(CCCCCC(=O)NCc3ccc(F)cc3)c(=O)c3sccc32)cc1`, the negative-log IC50 (pIC50) is 5.71.

As for `Cc1ccc(Cl)cc1NC(=O)c1cc(-c2ccccn2)n[nH]1`, the pIC50 was 4.87.

As for `CCOc1ccc(C(=O)Cn2c(=O)n(CC3CCCO3)c(=O)c3cc(OC)c(OC)cc32)cc1Cl` (configuration not stated), the pIC50 is 4.64.

In the case of `CCC(=O)N1c2ccccc2NC2=C(C(=O)CC(c3ccccc3OCc3ccccc3)C2)C1c1ccccc1` (configuration not stated), the negative logarithm of the IC50 (pIC50) was 5.34.

Regarding `COc1ccc(CNC(=O)CN2C(=O)C(C)=C(c3ccc(C)cc3)S2(=O)=O)cc1`, the IC50 was > 50 µM (inactive).

In the case of `O=C(COC(=O)c1ccc2ncsc2c1)Nc1ccccc1F`, the IC50 is > 50 µM (inactive).

Take `Cc1c(C)n(-c2ccccc2)c2ncn(CC(=O)N(C)Cc3ccccc3)c(=O)c12`: the IC50 is > 50 µM (inactive).

On to `Cc1ccc2c(c1C)NC(=O)[C@]21[C@@H]2C(=O)N(c3cc(Cl)ccc3Cl)C(=O)[C@@H]2[C@@H]2CCCN21`, for which the IC50 was > 50 µM (inactive).

Regarding `O=C(CSc1nnc(Cn2cnc3ccccc32)o1)Nc1ccc([N+](=O)[O-])cc1`, the pIC50 was 4.69.

On to `Cc1cccc(NC(=O)c2noc3c2CCc2sccc2-3)n1`, for which the pIC50 was 4.77.

As for `CC1OC2CC(O)C1(O)C1=C2C(O)=C(C(N)=O)C(=N)C1=O` (configuration not stated), the pIC50 was 4.91.

With `O=C1N(Cc2cccc(Cl)c2)CCN1c1ccc2c(c1)CCC2`, the pIC50 was 4.74.

As for `COc1ccc(OC)c(-c2c(C#N)c(C)nc3c2N2CCC3CC2)c1`, the pIC50 was 5.74.

`CC1CCN(C(=O)c2cn(-c3cc(N4CCC(C)CC4)ncn3)cn2)CC1`: the pIC50 was 4.82.

For the compound `COc1cnc(-c2ccccn2)nc1Sc1ccc(C)cc1`, the IC50 was > 50 µM (inactive).

Consider `c1ccc(-n2nnc(-c3noc(-c4ccccn4)n3)c2-c2ccncc2)cc1`, for which the negative-log IC50 (pIC50) is 4.62.

The record behind these values is PubChem BioAssay AID1645866 (Buhrlage Lab, Dana-Farber Cancer Institute and Novartis …, 2021).
